# Patent publication US20020042079A1, “METHODS AND AGENTS FOR MEASURING AND CONTROLLING MULTIDRUG RESISTANCE” (priority 1994, published 2002)
# System: MCF-7adr cells
# Assay: Intravesicular pH with SNAFL-calcein
# Format: cell-based, human
# Settings: monensin 10 μg/ml for 30 minutes
# Source text: FIG. 6a-6c show Measurements of Intravesicular pH utilizing SNAFL-calcein. […] In contrast, significant pH gradients, including an acidic pericentriolar labeling is observed in MCF7adr cells (FIG. 6b). The intravesicular pH in drug-resistant MCF-7adr cells (white bars) is […] than the vesicular pH of the drug-sensitive parental MCF-7 (black bars) (FIG. 6c). This acidic pH difference is reduced by treatment of MCF-7adr cells with monensin (dark grey). Methods: The acetoxymethylester derivative of SNAFL-calcein (15 μg/ml) (a radiometric fluorescent probe for pH) was added to both MCF-7 and MCF-7adr cells. The ester linked fluorescent probe enters the cell passively where the esters are hydrolyzed by esterases located in the cytoplasm and intracellular vesicles. […] The cells were incubated at 37° C. for 45 minutes and then examined in with the Insight confocal fluorescence. […] To obtain a quantitative relationship between emission ratios and pH, each SNAFL-calcein stained cell line was exposed to a buffer at a known pH containing nigericin/high K^+ (18 μM/150 mM KCl). […] These values were then incorporated into a pH imaging routine that provides a direct read-out of pH values for individual intracellular compartments that are queried on the computer screen. […] (c) To prepare histograms of vesicular pH, 5 vesicles within a confocal section were analyzed/cell (20 cells per cell type). […]
smiles,measurement,value
CC[C@@]1([C@@H]2O[C@@H]([C@H]3O[C@@](O)(CO)[C@H](C)C[C@@H]3C)C[C@@H]2C)CC[C@H]([C@]2(C)CC[C@]3(C[C@H](O)[C@@H](C)[C@@H]([C@@H](C)[C@@H](OC)[C@H](C)C(=O)O)O3)O2)O1 [Monensin],pH of acidic vesicular compartments after treatment,alkalization of acidic vesicular compartments to pH values observed for drug sensitive MCF-7 cells
